Test results published in patent US6348587B1, “2′-Fluoronucleosides” (Emory University, priority 1998, dated 2002).
Counter-ions that a name gives are not always drawn.

Columns and labels:
HIV-1 (strain LAV) = assay: Anti-HIV-1 activity in PHA-stimulated human PBM cells (virus quantitated by reverse transcriptase assay, day 6); assay type: cell-based; conditions: HIV-1 in human PBM cells
Method: The ability of nucleosides to inhibit HIV can be measured by various experimental techniques. One technique, described in detail below, measures the inhibition of viral replication in phytohemagglutinin (PHA) stimulated human peripheral blood mononuclear (PBM) cells infected with HIV-1 (strain LAV). The amount of virus produced is determined by measuring the virus-coded reverse transcriptase enzyme. The amount of enzyme produced is proportional to the amount of virus produced.
(§1) Antiviral and cytotoxicity assays: Anti-HIV-1 activity of the compounds is determined in human peripheral blood mononuclear (PBM) cells as described previously (Schinazi, R. F.; McMillan, A.; Cannon, D.; Mathis, R.; Lloyd, R. M. Jr.; Peck, A.; Sommadossi, J.-P.; St. Clair, M.; Wilson, J.; Furman, P. A.; Painter, G.; Choi, W.-B.; Liotta, D. C. Antimicrob. Agents Chemother. 1992, 36, 2423; Schinazi, R. F.; Sommadossi, J.-P.; Saalmann, V.; Cannon, D.; Xie, M.-Y.; Hart, G.; Smith, G.; Hahn, E. Antimicrob. Agents Chemother. 1990, 34, 1061). Stock solutions (20-40 mM) of the compounds were prepared in sterile DMSO and then diluted to the desired concentration in complete medium. […] Cells are infected with the prototype HIV-1LAI at a multiplicity of infection of 0.01. Virus obtained from the cell supernatant are quantitated on day 6 after infection by a reverse transcriptase assay using poly(rA)n.oligo(dT)12-18 as template-primer. The DMSO present in the diluted solution (<0.1%) should have no effect on the virus yield. The toxicity of the compounds can be assessed in human PBM, CEM, and Vero cells. The antiviral EC50 and cytotoxicity IC50 is obtained from the concentration-response curve using the median effective method described by Chou and Talalay (Adv. Enzyme Regul. 1984, 22, 27).
Three-day-old phytohemagglutinin-stimulated PBM cells 10^6 cells/ml) from hepatitis B and HIV-1 seronegative healthy donors are infected with HIV-1 (strain LAV) at a concentration of about 100 times the 50% tissue culture infectious dose (TICD 50) per ml and cultured in the presence and absence of various concentrations of antiviral compounds.
Approximately one hour after infection, the medium, with the compound to be tested (2 times the final concentration in medium) or without compound, is added to the flasks (5 ml; final volume 10 ml).
The cells are exposed to the virus (about 2×10^5 dpm/ml, as determined by reverse transcriptase assay) and then placed in a CO2 incubator. HIV-1 (strain LAV) is obtained from the Center for Disease Control, Atlanta, Ga. The methods used for culturing the PBM cells, harvesting the virus and determining the reverse transcriptase activity are those described by McDougal et al. (J. Immun. Meth. 76, 171-183, 1985) and Spiral et al. (J. Clin. Meth. 25, 97-99, 1987), except that flngizone was not included in the medium (see Schinazi, et al., Antimicrob. Agents Chemother. 32, 1784-1787 (1988); Id., 34:1061-1067 (1990)).
On day 6, the cells and supernatant are transferred to a 15 ml tube and centrifuged at about 900 g for 10 minutes. Five ml of supernatant are removed and the virus concentrated by centrifugation at 40,000 rpm for 30 minutes (Beckman 70.1 Ti rotor). The solubilized virus pellet is processed for determination of the levels of reverse transcriptase. Results are expressed in dpm/ml of sampled supernatant. Virus from smaller volumes of supernatant (1 ml) can also be concentrated by centrifugation prior to solubilization and determination of reverse transcriptase levels.

CEM cells = assay: Cytotoxicity in CEM cells; assay type: cell-based, human
Method: as §1
The extent of anticancer activity can be easily assessed by assaying the compound according to the procedure below in a CEM cell or other tumor cell line assay. CEM cells are human lymphoma cells (a T-lymphoblastoid cell line that can be obtained from ATCC, Rockville, Md.). […] The toxicity is measured as IC50 micromolar). […] Drug solutions, including cycloheximide as a positive control, are plated in triplicate in 50 μl growth medium at 2 times the final concentration and allowed to equilibrate at 37° C. in a 5% CO2 incubator. Log phase cells are added in 50 μl growth medium to a final concentration of 2.5×10^3 (CEM and SK-MEL-28), 5×10^3 (MMAN, MDA-MB-435s, SKMES-1, DU-145, LNCap), or 1×10^4 (PC-3, MCF-7) cells/well and incubated for 3 (DU-145, PC-3, MMAN), 4 (MCF-7, SK-MEL-28, CEM), or 5 (SK-MES-1, MDA-MB-435s, LNCaP) days at 37° C. under a 5% CO2 air atmosphere. Control wells include media alone (blank) and cells plus media without drug. After growth period, 15 μl of Cell Titer 96 kit assay dye solution (Promega, Madison, Wis.) are added to each well and the plates are incubated 8 hr at 37° C. in a 5% CO2 incubator. Promega Cell Titer 96 kit assay stop solution is added to each well and incubated 4-8 hr in the incubator. Absorbance is read at 570 nm, blanking on the medium-only wells using a Biotek Biokinetics plate reader (Biotek, Winooski, Vt.). Average percent inhibition of growth compared to the untreated control is calculated. IC50, IC90, slope and r value are calculated by the method of Chou and Talalay. Chou T-C, Talalay P. Quantitative analysis of dose-effect relationships: The combined effects of multiple drugs or enzyme inhibitors. Adv Enzyme Regul 1984, 22:27-55.

Vero cells = assay: Cytotoxicity in Vero cells; assay type: cell-based
Method: as §1, with “[…].;” for “R. F.; McMillan, A.;”, “[…].;” for “A.; Sommadossi, J.-P.;”, “[…].” for “W.-B.; Liotta, D. C.”, “[…].;” for “R. F.; Sommadossi, J.-P.; Saalmann, V.;”, “[…].;” for “M.-Y.; Hart, G.;”

PBM cells = assay: Cytotoxicity in uninfected human PBM cells; assay type: cell-based
Method: (§2) Antiviral and cytotoxicity assays: Anti-HIV-1 activity of the compounds is determined in human peripheral blood mononuclear (PBM) cells as described previously (Schinazi, […].; Cannon, D.; Mathis, R.; Lloyd, R. M. Jr.; Peck, […].; St. Clair, M.; Wilson, J.; Furman, P. A.; Painter, G.; Choi, […]. Antimicrob. Agents Chemother. 1992, 36, 2423; Schinazi, […].; Cannon, D.; Xie, […].; Smith, G.; Hahn, E. Antimicrob. Agents Chemother. 1990, 34, 1061). Stock solutions (20-40 mM) of the compounds were prepared in sterile DMSO and then diluted to the desired concentration in complete medium. […] Cells are infected with the prototype HIV-1LAI at a multiplicity of infection of 0.01. Virus obtained from the cell supernatant are quantitated on day 6 after infection by a reverse transcriptase assay using poly(rA)n.oligo(dT)12-18 as template-primer. […] The toxicity of the compounds can be assessed in human PBM, CEM, and Vero cells. The antiviral EC50 and cytotoxicity IC50 is obtained from the concentration-response curve using the median effective method described by Chou and Talalay (Adv. Enzyme Regul. 1984, 22, 27). Mitogen stimulated uninfected human PBM cells (3.8×10^5 cells/ml) can be cultured in the presence and absence of drug under similar conditions as those used for the antiviral assay described above. The cells are counted after 6 days using a hemacytometer and the trypan blue exclusion method, as described by Schinazi et al., Antimicrobial Agents and Chemotherapy, 22(3), 499 (1982).

[1] = molecular target: HIV-1 heterodimer p66/51 reverse transcriptase (Human immunodeficiency virus type 1 group M subtype B, UniProt P04585); assay: HIV-1 reverse transcriptase extension assay, r(I)n.(dC)12-18 template-primer
Method: Extension assays were performed using a r(I)n.(dC)12-18 homopolymer template-primer (Pharmacia, Piscataway, N.J.) and the HIV-1 heterodimer p66/51 reverse transcriptase (RT, Biotechnology General, Rehovat, Israel). The standard reaction mixture (100 μl) contained 100 mM Tris hydrochloride (pH 8.0), 50 mM KCl, 2 mM MgCl2, 0.05 units/ml r(I)n.(dC)12-18, 5 mM DTT, 100 μg/ml Bovine Serum Albumin, and 1 μM ^3H-dCTP (23 Ci/mmol). 3TCTP (0.001-50 μM) was the positive control. Compounds were incubated 1 hr at 37° C. in the reaction mixture with 1 unit HIV-1 RT. The reaction was stopped with the addition of an equal volume of cold 10% TCA/0.05% sodium pyrophosphate and incubated 30 minutes at 4° C. The precipitated nucleic acids were harvested onto fiberglass filter paper using a Packard manual harvester (Meriden, Conn.). The radiolabel uptake in counts per minute (cpm) was determined using a Packard 9600 Direct Beta counter.

[2] = Cytotoxicity in Vero cells; assay type: cell-based; conditions: African green monkey, Vero cells
Method: as §1, with “[…].;” for “R. F.; McMillan, A.;”, “[…].;” for “A.; Sommadossi, J.-P.;”, “[…].” for “W.-B.; Liotta, D. C.”, “[…].;” for “R. F.; Sommadossi, J.-P.; Saalmann, V.;”, “[…].;” for “M.-Y.; Hart, G.;”

[3] = Cytotoxicity in uninfected human PBM cells; assay type: cell-based; conditions: human, mitogen-stimulated uninfected human PBM cells; PMC Cells
Method: as §2

[4] = Human immunodeficiency virus 1, PBMC

| EC50 (HIV-1 (strain LAV)) [µM] | EC90 (HIV-1 (strain LAV)) [µM] | EC50 (HIV-1 (strain LAV); [4]) [µM] | EC90 (HIV-1 (strain LAV); [4]) [µM] | Structure (SMILES) | IC50 (CEM cells) [µM] | IC50 (Vero cells) [µM] | IC50 (PBM cells) [µM] | EC50 [1] [nM] | IC50 [2] [µM] | IC50 at 6 days [3] [µM] |
| --- | --- | --- | --- | --- | --- | --- | --- | --- | --- | --- |
| 1.5 | 15.1 |  |  | Nc1ncnc2c1ncn2[C@H]1O[C@@H](CO)C=C1F [Compound 335, 9-(2,3-dideoxy-2-fluoro-β-L-gycero-pent-2-enofuranosyl)adenine] | > 100 | > 100 | > 100 |  |  |  |
| 0.51 | 4.3 |  |  | Nc1ccn([C@H]2O[C@@H](CO)C=C2F)c(=O)n1 [Compound 322, 1-(2,3-dideoxy-2-fluoro-β-L-gycero-pent-2-enofuranosyl)cytosine] | > 100 | > 100 | > 100 |  |  |  |
|  |  |  |  | Nc1nc(=O)n(C2C=CC(COP(=O)(O)OP(=O)(O)OP(=O)(O)O)C2)cc1F (mixture of isomers) [(±)-carbocyclic-D4FC-TP, cis-(±)-Carbocyclic 2′,3′-didehydro-2′,3′-dideoxy-5-fluorocytidine 5′-triphosphate, triethylhydrogenammonium salt] |  |  |  | 400 |  |  |
| > 100 | > 100 |  |  | Cc1cn([C@H]2O[C@@H](CO)C=C2F)c(=O)[nH]c1=O [Compound 318, 1-(2,3-Dideoxy-2-fluoro-(α,β)-L-gycero-pent-2-eno-furanosyl)thymine] | > 100 | > 100 | > 100 |  |  |  |
| > 100 | > 100 |  |  | Nc1ccn([C@@H]2O[C@@H](CO)C=C2F)c(=O)n1 [Compound 323, 1-(2,3-dideoxy-2-fluoro-α-L-gycero-pent-2-enofuranosyl)cytosine] | > 100 | > 100 | > 100 |  |  |  |
| > 100 | > 100 |  |  | O=c1[nH]cnc2c1ncn2[C@@H]1O[C@@H](CO)C=C1F [Compound 338, 9-(2,3-dideoxy-2-fluoro-α-L-gycero-pent-2-enofuranosyl)hypoxanthine] | > 100 |  | > 100 |  |  |  |
|  |  | 0.004 | 0.04 | Cc1cn([C@H]2C[C@H](N=[N+]=[N-])[C@@H](CO)O2)c(=O)[nH]c1=O [AZT, 3′-azido-3′-deoxythymidine, reference compound] |  |  |  |  | 29 | > 100 |
| > 100 | > 100 |  |  | O=c1ccn([C@H]2O[C@@H](CO)C=C2F)c(=O)[nH]1 [Compound 316, 1-(2,3-Dideoxy-2-fluoro-(α,β)-L-gycero-pent-2-eno-furanosyl)uracil] | > 100 | > 100 | > 100 |  |  |  |
| 47.6 | 332 |  |  | Nc1ncnc2c1ncn2[C@@H]1O[C@@H](CO)C=C1F [Compound 336, 9-(2,3-dideoxy-2-fluoro-α-L-gycero-pent-2-enofuranosyl)adenine] | > 100 | > 100 | > 100 |  |  |  |
| > 100 | > 100 |  |  | O=c1[nH]cnc2c1ncn2[C@H]1O[C@@H](CO)C=C1F [Compound 337, 9-(2,3-dideoxy-2-fluoro-β-L-gycero-pent-2-enofuranosyl)hypoxanthine] | > 100 | > 100 | > 100 |  |  |  |
